Assay results: the supplement of paper PMC10307832

Experiments:
Test in all cases: relative viability (nuclei count vs DMSO), 5 days (fraction); higher = more cells survive
[1] = compound: CCN(CCO)CCCC(C)Nc1ccnc2cc(Cl)ccc12 [Hydroxychloroquine] + N=C(N)NC(=N)NCCc1ccccc1 [Phenformin] (partner 250 µM)
Summary of the method: (§1)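 Lung cancer cell lines in 1536-well plates got either a single drug or a fixed anchor-drug dose together with five library-drug doses (not always all listed) in √10 steps, by pin tool, on the day after seeding. Nuclei were counted after 5 days, and relative viability is the treated-to-vehicle ratio of nuclei counts. Values are medians of duplicate plates.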

[2] = compound: CCN(CCO)CCCC(C)Nc1ccnc2cc(Cl)ccc12 [Hydroxychloroquine] + CC(=O)Nc1cccc(-n2c(=O)n(C3CC3)c(=O)c3c(Nc4ccc(I)cc4F)n(C)c(=O)c(C)c32)c1 [Trametinib] (partner 0.02 µM)
Summary of the method: as §1

[3] = compound: CCN(CCO)CCCC(C)Nc1ccnc2cc(Cl)ccc12 [Hydroxychloroquine] + CC1(C)CCC(c2ccc(Cl)cc2)=C(CN2CCN(c3ccc(C(=O)NS(=O)(=O)c4ccc(N[C@H](CCN5CCOCC5)CSc5ccccc5)c(S(=O)(=O)C(F)(F)F)c4)cc3)CC2)C1 [Navitoclax] (partner 0.5 µM)
Summary of the method: as §1

[4] = compound: CCN(CCO)CCCC(C)Nc1ccnc2cc(Cl)ccc12 [Hydroxychloroquine] + Nc1nc2[nH]cc(CCc3ccc(C(=O)N[C@@H](CCC(=O)O)C(=O)O)cc3)c2c(=O)[nH]1 [Pemetrexed] (partner 0.2 µM)
Summary of the method: as §1

Row | Cell Line | relative viability ([1]; first compound 0.5 µM) | relative viability ([1]; first compound 1.581 µM) | relative viability ([1]; first compound 5 µM) | relative viability ([1]; first compound 15.81 µM) | relative viability ([1]; first compound 50 µM) | relative viability ([2]; first compound 0.5 µM) | relative viability ([2]; first compound 1.581 µM) | relative viability ([2]; first compound 5 µM) | relative viability ([2]; first compound 15.81 µM) | relative viability ([2]; first compound 50 µM) | relative viability ([3]; first compound 0.5 µM) | relative viability ([3]; first compound 1.581 µM) | relative viability ([3]; first compound 5 µM) | relative viability ([3]; first compound 15.81 µM) | relative viability ([3]; first compound 50 µM) | relative viability ([4]; first compound 0.5 µM) | relative viability ([4]; first compound 1.581 µM) | relative viability ([4]; first compound 5 µM) | relative viability ([4]; first compound 15.81 µM) | relative viability ([4]; first compound 50 µM)
1 | NCI-H2087 | 0.445 | 0.383 | 0.486 | 0.566 | 0.464 | 0.202 | 0.234 | 0.187 | 0.193 | 0.238 | 0.972 | 0.938 | 1.04 | 1.16 | 1.04 | 0.634 | 0.669 | 0.7 | 0.709 | 0.771
2 | LU99A | 0.765 | 0.735 | 0.873 | 0.751 | 0.799 | 0.626 | 0.505 | 0.542 | 0.527 | 0.577 | 0.858 | 0.707 | 0.93 | 0.679 | 0.749 | 0.179 | 0.194 | 0.157 | 0.198 | 0.206
3 | NCI-H1355 | 0.431 | 0.408 | 0.457 | 0.442 | 0.425 | 0.374 | 0.413 | 0.435 | 0.376 | 0.388 | 0.891 | 0.879 | 0.876 | 0.991 | 1.01 | 1.11 | 0.997 | 0.906 | 1.05 | 1.14
4 | NCI-H596 | 0.69 | 0.66 | 0.784 | 0.835 | 0.908 | 0.652 | 0.926 | 0.769 | 0.797 | 0.795 | 0.857 | 0.853 | 0.933 | 0.979 | 0.998 | 0.547 | 0.481 | 0.45 | 0.479 | 0.489
5 | NCI-H727 | 0.514 | 0.424 | 0.407 | 0.618 | 0.532 | 0.369 | 0.361 | 0.396 | 0.405 | 0.382 | 0.456 | 0.399 | 0.482 | 0.357 | 0.406 | – | – | – | – | –
6 | NCI-H661 | 0.275 | 0.259 | 0.3 | 0.243 | 0.254 | 0.549 | 0.522 | 0.593 | 0.596 | 0.577 | – | – | – | – | – | 0.962 | 0.904 | 0.91 | 0.877 | 0.872
7 | NCI-H650 | 0.479 | 0.438 | 0.413 | 0.455 | 0.473 | 0.877 | 0.876 | 0.965 | 1.03 | 0.969 | – | – | – | – | – | 0.979 | 0.868 | 0.966 | 1.06 | 0.889
8 | 201T | 0.441 | 0.428 | 0.449 | 0.419 | 0.526 | 0.727 | 0.777 | 0.728 | 0.733 | 0.724 | 1.22 | 1.19 | 1.19 | 1.19 | 1.22 | 0.346 | 0.331 | 0.338 | 0.307 | 0.339
9 | PC-14 | 0.676 | 0.573 | 0.551 | 0.595 | 0.601 | 0.708 | 0.846 | 0.667 | 0.798 | 0.687 | 1.03 | 1.07 | 0.979 | 1.01 | 0.962 | 0.149 | 0.145 | 0.118 | 0.142 | 0.129
10 | UMC-11 | – | 0.305 | 0.308 | 0.315 | 0.335 | 0.642 | 0.431 | 0.762 | 0.669 | 0.741 | 0.307 | 0.288 | 0.299 | 0.322 | 0.327 | 0.751 | 0.751 | 0.826 | 0.976 | 0.825
11 | PC-3 [JPC-3] | 0.448 | 0.457 | 0.448 | 0.432 | 0.507 | 0.694 | 0.69 | 0.668 | 0.723 | 0.681 | 0.851 | 0.776 | 0.83 | 0.67 | 0.85 | 1.09 | 1.2 | 1.01 | 0.323 | 0.842
12 | LK-2 | 0.37 | 0.314 | – | 0.33 | 0.574 | 0.864 | 0.599 | 0.707 | 0.876 | 1.01 | 0.777 | 0.763 | 0.809 | 0.914 | 0.632 | 0.299 | 0.261 | 0.256 | 0.274 | 0.206
13 | COR-L23 | 0.445 | 0.467 | 0.496 | 0.49 | 0.485 | 0.602 | 0.582 | 0.616 | 0.767 | 0.712 | 1.03 | 0.926 | 1.24 | 1.31 | 1.12 | 0.192 | 0.189 | 0.21 | 0.211 | 0.186
14 | NCI-H1944 | 0.196 | 0.17 | 0.193 | 0.195 | 0.204 | 0.398 | 0.354 | 0.39 | 0.403 | 0.41 | 0.958 | 0.955 | 1.06 | 0.951 | 1.01 | 0.691 | 0.586 | 0.531 | 0.586 | 0.648
15 | LCLC-103H | 0.347 | 0.33 | 0.341 | 0.335 | 0.346 | 0.684 | 0.642 | 0.678 | 0.719 | 0.695 | – | – | – | – | – | 0.439 | 0.504 | 0.368 | 0.455 | 0.473
16 | ABC-1 | 0.244 | 0.205 | 0.237 | 0.192 | 0.206 | – | – | – | – | – | – | – | – | – | – | – | – | – | – | –
17 | NCI-H358 | 0.345 | 0.284 | 0.314 | 0.32 | 0.323 | 0.128 | 0.122 | 0.132 | 0.131 | 0.127 | – | – | – | – | – | 0.164 | 0.166 | 0.179 | 0.161 | 0.179
18 | NCI-H1563 | 0.677 | 0.652 | 0.649 | 0.635 | 0.635 | – | – | – | – | – | – | – | – | – | – | 0.888 | 0.692 | 0.724 | 0.78 | 0.875
19 | EBC-1 | – | – | – | – | – | – | – | – | – | – | 0.371 | 0.387 | 0.418 | 0.412 | 0.374 | – | – | – | – | –
20 | Calu-6 | – | – | – | – | – | – | – | – | – | – | 0.852 | 0.883 | 0.836 | 0.731 | 0.823 | – | – | – | – | –
